In patent US10556902B2 (Asceneuron SA, priority 2016, dated 2020):

molecular target: His-Tagged hOGA (human O-GlcNAcase) (Homo sapiens (Human), UniProt O60502); assay: Human O-GlcNAcase enzyme inhibition assay; format: biochemical; details: OGA enzyme inhibition assay; FL-GlcNAc substrate, pH 6.5; activity classes defined in μM; read-out: OGA IC50;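 note: reactions contained 20 nM His-tagged hOGA enzyme with 10 µM FL-GlcNAc substrate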
Sequence (O60502 whole entry): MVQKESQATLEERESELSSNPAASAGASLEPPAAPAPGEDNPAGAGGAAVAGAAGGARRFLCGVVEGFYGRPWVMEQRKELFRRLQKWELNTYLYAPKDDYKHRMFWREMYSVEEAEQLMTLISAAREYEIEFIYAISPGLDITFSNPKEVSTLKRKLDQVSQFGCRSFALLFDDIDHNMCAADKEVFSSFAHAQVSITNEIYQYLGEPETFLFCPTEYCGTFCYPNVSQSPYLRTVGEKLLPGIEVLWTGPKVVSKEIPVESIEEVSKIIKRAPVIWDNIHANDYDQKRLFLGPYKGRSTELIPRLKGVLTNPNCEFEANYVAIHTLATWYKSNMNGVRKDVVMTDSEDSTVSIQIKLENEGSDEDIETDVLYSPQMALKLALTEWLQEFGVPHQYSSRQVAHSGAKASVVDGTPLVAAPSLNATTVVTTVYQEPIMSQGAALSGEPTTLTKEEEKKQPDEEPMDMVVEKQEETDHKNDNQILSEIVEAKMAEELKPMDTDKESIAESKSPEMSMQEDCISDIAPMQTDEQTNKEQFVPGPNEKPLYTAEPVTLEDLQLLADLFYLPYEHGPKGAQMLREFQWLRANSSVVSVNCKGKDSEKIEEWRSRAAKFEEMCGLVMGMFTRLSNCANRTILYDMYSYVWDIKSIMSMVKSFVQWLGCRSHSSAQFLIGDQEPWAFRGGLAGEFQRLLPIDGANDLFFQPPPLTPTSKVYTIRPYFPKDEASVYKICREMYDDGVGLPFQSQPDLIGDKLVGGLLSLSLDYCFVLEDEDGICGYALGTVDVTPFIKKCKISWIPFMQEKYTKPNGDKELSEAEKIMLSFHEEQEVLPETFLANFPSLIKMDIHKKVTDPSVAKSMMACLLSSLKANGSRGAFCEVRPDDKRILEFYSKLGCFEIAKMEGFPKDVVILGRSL
Description: Then, 20 nM of His-Tagged hOGA and 10 μM of FL-GlcNAc (Fluorescein mono-beta-D-(2-deoxy-2-N-acetyl) glucopyranoside; Marker Gene Technologies Inc, M1485) were added to the 384-well plate for a final volume of 20 μl.

SMILES	IC50
CC(c1ccc2nccnc2c1)N1CCN(c2ccc(C3(O)COC3)cn2)CC1 (racemic) [Example 59, 3-(6-(4-(1-(quinoxalin-6-yl)ethyl)piperazin-1-yl)pyridin-3-yl)oxetan-3-ol]	0.05 to 0.2 µM
CC(=O)Nc1cnn(C2CCN(C(C)c3ccc4nccnc4c3)CC2)c1 (racemic) [Example 27, N-(1-(1-(1-(quinoxalin-6-yl)ethyl)piperidin-4-yl)-1H-pyrazol-4-yl)acetamide]	1 to 10 µM
CC(c1ccc2c(c1)OCC2)N1CCN(c2ncc(C(C)(C)O)cn2)CC1 (racemic) [Example 74, 2-(2-(4-(1-(2,3-dihydrobenzofuran-6-yl)ethyl)piperazin-1-yl)pyrimidin-5-yl) propan-2-ol]	< 0.05 µM
CC(c1ccc2nccnc2c1)N1CCN(c2nc3c(s2)C(=O)N(C)CC3)CC1 (racemic) [Example 14, 5-methyl-2-(4-(1-(quinoxalin-6-yl)ethyl)piperazin-1-yl)-6,7-dihydrothiazolo[5,4-c]pyridin-4(5H)-one]	0.2 to 1 µM
CC(=O)NCc1nnc(N2CCN(C(C)c3ccc4nccnc4c3)CC2)s1 (racemic) [Example 112, N-((5-(4-(1-(quinoxalin-6-yl)ethyl)piperazin-1-yl)-1,3,4-thiadiazol-2-yl)methyl)acetamide]	0.05 to 0.2 µM
CC(c1ccc2nccnc2c1)N1CCN(c2ncc(C3=CCCC3)cn2)CC1 (racemic) [Example 94, 6-(1-(4-(5-(cyclopent-1-en-1-yl)pyrimidin-2-yl)piperazin-1-yl)ethyl)quinoxaline]	0.2 to 1 µM
